Laboratory results published in US11718612B2, “Inhibitors of receptor interacting protein kinase I for the treatment of disease” (Board of Regents, The University of Texas System, priority 2019, dated 2023).

What follows are compounds tested on U937 cells (assay: Human U937 cellular necroptosis assay). Settings: U-937; U937 cells stimulated with 25 ng/mL human TNFalpha and 25 μM z-VAD-FMK; 22 hr; Cell Titer-Glo viability.
Format: cell-based
Protocol: Human U937 Cellular Necroptosis Assay
The human monocytic cell line U937 (CRL-1593.2) may be purchased from ATCC. The cells are routinely maintained in RPMI-1640 Medium (Gibco, Catalog #11875-093) supplemented with 10% heat inactivated fetal bovine serum (Gibco, Catalog #16140-071), 100 units/mL penicillin and 100 μg/mL streptomycin (Gibco, Catalog #15140-122), in a humidified incubator (37° C., 5% CO2). For the assay, cells are resuspended in RPMI-1640 phenol red free Media (Gibco, Catalog #11835-030) supplemented with 10% fetal bovine serum (Sigma, Catalog #F2442), 100 units/mL penicillin and 100 ug/mL streptomycin. […] Stock solutions of the test compounds are prepared in 100% DMSO (Sigma, Catalog #D2650) and serially diluted 1:3 using 100% DMSO. Compounds are additionally diluted 1:40 in assay medium, and 10 μL/well was transferred to the plate. Following the compound addition, the plate is incubated at 37° C. and 5% CO2 for 22 hr. After 22 hr, viability is assessed with the addition of 20 μL of Cell Titer-Glo 2.0 (Promega, Catalog #G9243). The tissue culture plate is shaken on an orbital shaker at 300 RPM for 15 minutes at room temperature in the dark. Luminescence is measured using a PerkinElmer Envision™ plate reader. IC50 values are calculated using a four-parameter logistic curve fit using Genedata Screener software.

Compound	IC50
C[C@H](c1cccc(F)c1F)n1nc2c(c1Cl)CCN(c1cccc(Cl)c1F)C2=O (single isomer, unassigned) [Example 55a]	> 10000 nM
C[C@@H](c1cccc(F)c1F)n1nc2c(c1Cl)CCN(c1cccc(Cl)c1F)C2=O (single isomer, unassigned) [Example 55b]	6390 nM
C[C@@H](c1cccc(C#N)c1)n1cnc(C(=O)Nc2cccc(Cl)c2F)n1 (single isomer, unassigned) [Example 56b]	> 10000 nM
O=C1c2nn(Cc3cccc(F)c3F)c(Cl)c2CCN1c1cccc(Cl)c1F [Example 1, 3-chloro-6-(3-chloro-2-fluoro-phenyl)-2-[(2,3-difluorophenyl)methyl]-4,5-dihydropyrazolo[3,4-c]pyridin-7-one]	34.2 nM
CC(c1cccc(F)c1F)n1nc2c(c1Cl)CCN(c1cccc(Cl)c1F)C2=O (centres unmarked) [Example 55, 3-chloro-6-(3-chloro-2-fluorophenyl)-2-(1-(2,3-difluorophenyl)ethyl)-2,4,5,6-tetrahydro-7H-pyrazolo[3,4-c]pyridin-7-one]	> 10000 nM
CC(c1cccc(C#N)c1)n1cnc(C(=O)Nc2cccc(Cl)c2F)n1 (centres unmarked) [Example 56, N-(3-chloro-2-fluorophenyl)-1-(1-(3-cyanophenyl)ethyl)-1H-1,2,4-triazole-3-carboxamide]	1510 nM
N#Cc1cccc(Cn2nc3c(c2Cl)CCN(c2cccc(Cl)c2F)C3=O)c1 [Example 58, 3-((3-Chloro-6-(3-chloro-2-fluorophenyl)-7-oxo-4,5,6,7-tetrahydro-2H-pyrazolo[3,4-c]pyridin-2-yl)methyl)benzonitrile]	95.9 nM
N#Cc1cccc(Cn2cc3c(n2)C(=O)N(c2cccc(Cl)c2F)CC3)c1 [Example 59, 3-((6-(3-chloro-2-fluorophenyl)-7-oxo-4,5,6,7-tetrahydro-2H-pyrazolo[3,4-c]pyridin-2-yl)methyl)benzonitrile]	811 nM
Nc1c2c(nn1Cc1ccccc1)C(=O)N(c1cccc(Cl)c1F)CC2 [Example 60, 3-amino-2-benzyl-6-(3-chloro-2-fluorophenyl)-2,4,5,6-tetrahydro-7H-pyrazolo[3,4-c]pyridin-7-one]	1260 nM
O=C1c2nn(Cc3ccccc3)c(Br)c2CCN1c1cccc(Cl)c1F [Example 61, 2-benzyl-3-bromo-6-(3-chloro-2-fluorophenyl)-2,4,5,6-tetrahydro-7H-pyrazolo[3,4-c]pyridin-7-one]	44.6 nM
O=C1c2nn(Cc3cnccn3)c(Cl)c2CCN1c1cccc(Cl)c1F [Example 62, 3-chloro-6-(3-chloro-2-fluorophenyl)-2-(pyrazin-2-yl-methyl)-2,4,5,6-tetrahydro-7H-pyrazolo[3,4-c]pyridin-7-one]	53.7 nM
O=C1c2nn(Cc3ncccc3F)c(Cl)c2CCN1c1cccc(Cl)c1F [Example 63, 3-chloro-6-(3-chloro-2-fluorophenyl)-2-((3-fluoropyridin-2-yl)methyl)-2,4,5,6-tetrahydro-7H-pyrazolo[3,4-c]pyridin-7-one]	64.1 nM
O=C1c2nn(Cc3ncccc3Cl)c(Cl)c2CCN1c1cccc(Cl)c1F [Example 64, 3-chloro-6-(3-chloro-2-fluorophenyl)-2-((3-chloropyridin-2-yl)methyl)-2,4,5,6-tetrahydro-7H-pyrazolo[3,4-c]pyridin-7-one]	130 nM
Cc1ccc(Cn2nc3c(c2Cl)CCN(c2cccc(Cl)c2F)C3=O)cc1 [Example 65, 3-chloro-6-(3-chloro-2-fluorophenyl)-2-(4-methylbenzyl)-2,4,5,6-tetrahydro-7H-pyrazolo[3,4-c]pyridin-7-one]	207 nM
O=C1c2nn(Cc3ccc(F)cc3)c(Cl)c2CCN1c1cccc(Cl)c1F [Example 66, 3-chloro-6-(3-chloro-2-fluorophenyl)-2-(4-fluorobenzyl)-2,4,5,6-tetrahydro-7H-pyrazolo[3,4-c]pyridin-7-one]	291 nM
Cc1cccc(Cn2nc3c(c2Cl)CCN(c2cccc(Cl)c2F)C3=O)c1 [Example 67, 3-chloro-6-(3-chloro-2-fluorophenyl)-2-(3-methylbenzyl)-2,4,5,6-tetrahydro-7H-pyrazolo[3,4-c]pyridin-7-one]	444 nM

Compound	IC50
Cn1cc(Cn2nc3c(c2Cl)CCN(c2cccc(Cl)c2F)C3=O)cn1 [Example 68, 3-chloro-6-(3-chloro-2-fluorophenyl)-2-((1-methyl-1H-pyrazol-4-yl)-methyl)-2,4,5,6-tetrahydro-7H-pyrazolo[3,4-c]pyridin-7-one]	1340 nM
O=C1c2nn(CC3CCCOC3)c(Cl)c2CCN1c1cccc(Cl)c1F (centres unmarked) [Example 69, 3-chloro-6-(3-chloro-2-fluorophenyl)-2-((tetrahydro-2H-pyran-3-yl)methyl)-2,4,5,6-tetrahydro-7H-pyrazolo[3,4-c]pyridin-7-one]	563 nM
Cc1c2c(nn1Cc1ccccc1)C(=O)N(c1cccc(Cl)c1F)CC2 [Example 70, 2-benzyl-6-(3-chloro-2-fluorophenyl)-3-methyl-2,4,5,6-tetrahydro-7H-pyrazolo[3,4-c]pyridin-7-one]	233 nM
N#Cc1c2c(nn1Cc1ccccc1)C(=O)N(c1cccc(Cl)c1F)CC2 [Example 71, 2-benzyl-6-(3-chloro-2-fluorophenyl)-7-oxo-4,5,6,7-tetrahydro-2H-pyrazolo[3,4-c]pyridine-3-carbonitrile]	256 nM
NCc1c2c(nn1Cc1ccccc1)C(=O)N(c1cccc(Cl)c1F)CC2 [Example 72, 3-(aminomethyl)-2-benzyl-6-(3-chloro-2-fluorophenyl)-2,4,5,6-tetrahydro-7H-pyrazolo[3,4-c]pyridin-7-one]	6110 nM
O=C1c2nn(Cc3ccccc3)c(CO)c2CCN1c1cccc(Cl)c1F [Example 73, 2-benzyl-6-(3-chloro-2-fluorophenyl)-3-(hydroxymethyl)-2,4,5,6-tetrahydro-7H-pyrazolo[3,4-c]pyridin-7-one]	348 nM
O=C1c2nn(Cc3ccccc3)c(C(F)F)c2CCN1c1cccc(Cl)c1F [Example 74, 2-Benzyl-6-(3-chloro-2-fluorophenyl)-3-(difluoromethyl)-2,4,5,6-tetrahydro-7H-pyrazolo[3,4-c]pyridin-7-one]	42 nM
O=C1c2nn(Cc3ncccc3F)c(Cl)c2CCN1c1cc(CO)cc(Cl)c1F [Example 76, 3-chloro-6-(3-chloro-2-fluoro-5-(hydroxymethyl)phenyl)-2-((3-fluoropyridin-2-yl)methyl)-2,4,5,6-tetrahydro-7H-pyrazolo[3,4-c]pyridin-7-one]	917 nM
O=C1c2nn(Cc3ncccc3F)cc2CCN1c1cc(CO)cc(Cl)c1F [Example 77, 6-(3-chloro-2-fluoro-5-(hydroxymethyl)phenyl)-2-((3-fluoropyridin-2-yl)methyl)-2,4,5,6-tetrahydro-7H-pyrazolo[3,4-c]pyridin-7-one]	594 nM
CN(C)Cc1cc(Cl)c(F)c(N2CCc3c(nn(Cc4ncccc4F)c3Cl)C2=O)c1 [Example 78, 3-chloro-6-(3-chloro-5-((dimethylamino)methyl)-2-fluorophenyl)-2-((3-fluoropyridin-2-yl)methyl)-2,4,5,6-tetrahydro-7H-pyrazolo[3,4-c]pyridin-7-one]	> 10000 nM
O=C1c2nn(Cc3cccc(F)c3F)c(Cl)c2CCN1c1cc(CO)cc(Cl)c1F [Example 79, 3-chloro-6-(3-chloro-2-fluoro-5-(hydroxymethyl)phenyl)-2-(2,3-difluorobenzyl)-2,4,5,6-tetrahydro-7H-pyrazolo[3,4-c]pyridin-7-one]	346 nM
COCCOCc1cc(Cl)c(F)c(N2CCc3c(nn(Cc4cccc(F)c4F)c3Cl)C2=O)c1 [Example 80, 3-chloro-6-(3-chloro-2-fluoro-5-((2-methoxyethoxy)methyl)phenyl)-2-(2,3-difluorobenzyl)-2,4,5,6-tetrahydro-7H-pyrazolo[3,4-c]pyridin-7-one]	958 nM
COCc1cc(Cl)c(F)c(N2CCc3c(nn(Cc4cccc(F)c4F)c3Cl)C2=O)c1 [Example 81, 3-chloro-6-(3-chloro-2-fluoro-5-(methoxymethyl)phenyl)-2-(2,3-difluorobenzyl)-2,4,5,6-tetrahydro-7H-pyrazolo[3,4-c]pyridin-7-one]	> 10000 nM
O=C1c2nn(Cc3cccc(F)c3F)c(Cl)c2CCN1c1cc(Cn2ccnc2)cc(Cl)c1F [Example 82, 6-(5-((1H-imidazol-1-yl)methyl)-3-chloro-2-fluorophenyl)-3-chloro-2-(2,3-difluorobenzyl)-2,4,5,6-tetrahydro-7H-pyrazolo[3,4-c]pyridin-7-one]	863 nM
O=C1c2nn(Cc3cccc(F)c3F)c(Cl)c2CCN1c1cc(CNCC(F)(F)F)cc(Cl)c1F [Example 83, 3-chloro-6-(3-chloro-2-fluoro-5-(((2,2,2-trifluoroethyl)amino)methyl)phenyl)-2-(2,3-difluorobenzyl)-2,4,5,6-tetrahydro-7H-pyrazolo[3,4-c]pyridin-7-one]	1230 nM
N#CCc1cc(Cl)c(F)c(N2CCc3c(nn(Cc4cccc(F)c4F)c3Cl)C2=O)c1 [Example 84, 2-(3-chloro-5-(3-chloro-2-(2,3-difluorobenzyl)-7-oxo-2,4,5,7-tetrahydro-6H-pyrazolo[3,4-c]pyridin-6-yl)-4-fluorophenyl)acetonitrile]	142 nM
